Here are results for 1 compound from BindingDB's records for doi:10.1016/j.ejmech.2021.113695 (Griffith University, 2021).

Molecules are shown by their SMILES.

The assay in a line: Inhibition of NS2B-NS3 intramolecular cleavage in Dengue virus 2 infected in LLC-MK2 cells assessed as inhibition of viral replication measured afer 48 hrs by ELISA. Background: ELISA stands for enzyme-linked immunosorbent assay.

In general, EC50 refers to the concentration needed to bring the measured effect to its halfway point. Consider `O=C1c2c(O)ccc([N+](=O)[O-])c2C(=O)c2c([N+](=O)[O-])ccc(O)c21`, for which the EC50 is 4.2 µM.
